Experimental data: patent publication US9879303B2, “Chromogenic glucuronidase substrates and uses” (Glycosynth Limited, priority 2013, dated 2018)
Structures can show the parent of a compound that is named as a salt.

System: E. coli expressing both β-D-glucuronidase and β-D-galactosidase
Assay: broth media in the presence of ONPG
Format: cell-based
Conditions: ONPG 1.5 g/L, broth with FAC
Procedure: The two indoxyl glucuronides used produce insoluble endpoints following hydrolysis, as does the CPS ID 3 medium. It was therefore necessary to test these two substrates on agar plates. In contrast, catechol-β-D-glucuronide (1) and DHN-β-D-glucuronide (2b) give much more soluble endpoints best suited to liquid media and were therefore tested in a broth medium. Each broth was prepared using proteose peptone (Oxoid, Basingstoke, UK) (2 g), NaCl (1 g) and FAC (100 mg) in DI water (180 mL). This mixture was autoclaved and cooled to room temperature before being dispensed into bijoux (100×1.8 mL). Catechol β-D-glucuronide CHA salt (1) or DHN-β-D-glucuronide CHA salt (2b) (60 mg) were each dissolved in water (20 mL) and filtered to sterilize before being aseptically dispensed into successive bijoux (0.2 mL) containing the broth solution. […]
Because many E. coli produce both β-D-glucuronidase and β-D-galactosidase, catechol-β-D-glucuronide (1) and DHN-β-D-glucuronide (2b) were tested as in the broth media described above but in the presence of o-nitrophenyl-β-D-galactoside (ONPG) (at a concentration of 1.5 g/L). […] With either substrate, the colour of these solutions of mixed chromogens could be very readily distinguished with the unaided eye from the yellow colour of those strains, such as E. cloacae, that produced β-D-galactosidase only. […]

| Structure (SMILES) | colour of solutions in the presence of ONPG |
| --- | --- |
| O=C(O)C1OC(Oc2cc3ccccc3cc2O)C(O)C(O)C1O [Compound 2b, DHN-β-D-Glucuronide CHA Salt] | purple-brown solutions |
| O=C(O)C1OC(Oc2ccccc2O)C(O)C(O)C1O [Compound 1, Catechol β-D-Glucuronide CHA Salt] | greyish-black solutions |
